Read-outs that look alike come from different tables or passages of the source.
Legend:
[1] = molecular target: PI3Kγ (p110γ) Recombinant Human Protein (Homo sapiens (Human), UniProt P48736); experiment: PI3K-γ Scintillation Proximity Assay; format: biochemical
Summary of the method: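 Recombinant human p110γ assayed at room temperature in 20 mM MOPS pH 6.7, 10 mM MgCl2, 5 mM DTT, 0.03% CHAPS, 2% DMSO, with 20 μM PIP2 and 2 μM ATP plus [γ-33P]ATP. Product captured on WGA SPA beads overnight and counted; IC50 fitted from % of solvent-control activity versus log inhibitor concentration.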

[2] = molecular target: PI3Kδ (p110δ/p85α) Recombinant Human Protein (Homo sapiens (Human), UniProt O00329); experiment: PI3Kδ Scintillation Proximity Assay; format: biochemical
Chain of PI3Kδ (p110δ/p85α) Recombinant Human Protein (O00329 whole entry): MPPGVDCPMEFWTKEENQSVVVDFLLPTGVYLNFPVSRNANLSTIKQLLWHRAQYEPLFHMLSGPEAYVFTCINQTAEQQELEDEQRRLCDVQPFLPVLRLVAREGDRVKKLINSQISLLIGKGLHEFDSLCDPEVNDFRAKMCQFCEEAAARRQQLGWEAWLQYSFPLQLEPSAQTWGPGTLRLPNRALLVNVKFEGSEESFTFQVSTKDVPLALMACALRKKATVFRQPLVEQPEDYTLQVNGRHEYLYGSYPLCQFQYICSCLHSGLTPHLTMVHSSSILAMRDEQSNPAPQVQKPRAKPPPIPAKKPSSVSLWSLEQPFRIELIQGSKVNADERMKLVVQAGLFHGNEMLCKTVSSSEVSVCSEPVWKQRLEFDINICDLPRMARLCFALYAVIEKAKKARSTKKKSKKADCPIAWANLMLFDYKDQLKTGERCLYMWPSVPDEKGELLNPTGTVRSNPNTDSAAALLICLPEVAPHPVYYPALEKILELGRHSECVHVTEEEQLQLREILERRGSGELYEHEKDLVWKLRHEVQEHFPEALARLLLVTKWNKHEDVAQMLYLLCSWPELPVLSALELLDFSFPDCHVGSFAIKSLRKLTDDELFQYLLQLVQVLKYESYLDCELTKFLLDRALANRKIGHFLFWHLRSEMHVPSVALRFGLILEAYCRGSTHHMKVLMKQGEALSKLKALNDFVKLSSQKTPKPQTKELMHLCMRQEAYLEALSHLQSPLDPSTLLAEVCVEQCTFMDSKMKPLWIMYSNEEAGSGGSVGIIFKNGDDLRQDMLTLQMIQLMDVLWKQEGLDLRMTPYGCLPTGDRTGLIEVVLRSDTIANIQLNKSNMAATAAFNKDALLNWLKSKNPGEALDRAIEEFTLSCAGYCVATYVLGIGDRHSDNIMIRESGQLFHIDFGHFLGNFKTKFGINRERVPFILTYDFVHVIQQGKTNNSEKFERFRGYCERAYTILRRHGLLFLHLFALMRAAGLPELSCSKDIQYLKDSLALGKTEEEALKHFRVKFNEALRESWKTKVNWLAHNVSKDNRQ
Chain of PI3Kδ (p110δ/p85α) Recombinant Human Protein (P27986 whole entry partner): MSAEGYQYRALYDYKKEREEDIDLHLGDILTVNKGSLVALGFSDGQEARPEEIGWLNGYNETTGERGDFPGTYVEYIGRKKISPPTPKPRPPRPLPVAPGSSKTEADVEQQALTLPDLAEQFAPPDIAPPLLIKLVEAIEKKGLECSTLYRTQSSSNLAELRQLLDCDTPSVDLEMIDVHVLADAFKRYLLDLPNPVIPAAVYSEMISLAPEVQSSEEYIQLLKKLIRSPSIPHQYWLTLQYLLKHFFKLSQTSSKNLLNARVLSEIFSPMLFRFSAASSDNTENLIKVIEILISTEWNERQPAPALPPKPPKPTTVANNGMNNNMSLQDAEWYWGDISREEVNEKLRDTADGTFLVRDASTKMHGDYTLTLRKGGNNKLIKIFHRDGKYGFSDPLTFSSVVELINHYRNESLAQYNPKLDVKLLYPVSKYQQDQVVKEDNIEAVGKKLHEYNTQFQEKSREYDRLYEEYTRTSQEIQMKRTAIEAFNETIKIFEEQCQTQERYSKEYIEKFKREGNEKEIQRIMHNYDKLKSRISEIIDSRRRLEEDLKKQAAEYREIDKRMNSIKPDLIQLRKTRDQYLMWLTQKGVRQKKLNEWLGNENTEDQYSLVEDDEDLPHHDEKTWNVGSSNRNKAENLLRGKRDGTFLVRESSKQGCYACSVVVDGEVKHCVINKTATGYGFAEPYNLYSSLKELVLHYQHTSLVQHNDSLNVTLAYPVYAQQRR
Text: Example C. PI3Kδ Scintillation Proximity Assay
[γ-^33P]ATP (10 mCi/mL) and Wheat Germ Agglutinin (WGA) YSi SPA Scintillation Beads was purchased from Perkin-Elmer (Waltham, Mass.). Lipid kinase substrate, D-myo-Phosphatidylinositol 4,5-bisphosphate (PtdIns(4,5)P2)D (+)-sn-1,2-di-O-octanoylglyceryl, 3-O-phospho linked (PIP2), CAS 204858-53-7, was purchased from Echelon Biosciences (Salt Lake City, Utah). PI3Kδ (p110δ/p85α) Recombinant Human Protein was purchased from Eurofins (St Charles, Mo.). ATP, MgCl2, DTT, EDTA, MOPS and CHAPS were purchased from Sigma-Aldrich (St. Louis, Mo.).
The kinase reaction was conducted in polystyrene 384-well Greiner Bio-one white plate from Thermo Fisher Scientific in a final volume of 25 μL. Inhibitors were first diluted serially in DMSO and added to the plate wells before the addition of other reaction components. The final concentration of DMSO in the assay was 2%. The PI3Kδ assay was carried out at room temperature in 20 mM MOPS, pH 6.7, 10 mM MgCl2, 5 mM DTT and CHAPS 0.03%. Reactions were initiated by the addition of ATP, the final reaction mixture consisted of 20 μM PIP2, 2 μM ATP, 0.5 μCi [γ-^33P] ATP, 3.4 nM PI3Kδ. Reactions were incubated for 120 min and terminated by the addition of 40 μL SPA beads suspended in quench buffer: 163 mM potassium phosphate pH 7.8, 20% glycerol, 25 mM EDTA. The final concentration of SPA beads is 1.0 mg/mL. After the plate sealing, plates were shaken overnight at room temperature and centrifuged at 1500 rpm for 10 min, the radioactivity of the product was determined by scintillation counting on Topcount (Perkin-Elmer). IC50 determination was performed by fitting the curve of percent of the solvent control activity versus the log of the inhibitor concentration using the GraphPad Prism 6.0 software.

Chain of PI3Kγ (p110γ) Recombinant Human Protein (P48736 whole entry): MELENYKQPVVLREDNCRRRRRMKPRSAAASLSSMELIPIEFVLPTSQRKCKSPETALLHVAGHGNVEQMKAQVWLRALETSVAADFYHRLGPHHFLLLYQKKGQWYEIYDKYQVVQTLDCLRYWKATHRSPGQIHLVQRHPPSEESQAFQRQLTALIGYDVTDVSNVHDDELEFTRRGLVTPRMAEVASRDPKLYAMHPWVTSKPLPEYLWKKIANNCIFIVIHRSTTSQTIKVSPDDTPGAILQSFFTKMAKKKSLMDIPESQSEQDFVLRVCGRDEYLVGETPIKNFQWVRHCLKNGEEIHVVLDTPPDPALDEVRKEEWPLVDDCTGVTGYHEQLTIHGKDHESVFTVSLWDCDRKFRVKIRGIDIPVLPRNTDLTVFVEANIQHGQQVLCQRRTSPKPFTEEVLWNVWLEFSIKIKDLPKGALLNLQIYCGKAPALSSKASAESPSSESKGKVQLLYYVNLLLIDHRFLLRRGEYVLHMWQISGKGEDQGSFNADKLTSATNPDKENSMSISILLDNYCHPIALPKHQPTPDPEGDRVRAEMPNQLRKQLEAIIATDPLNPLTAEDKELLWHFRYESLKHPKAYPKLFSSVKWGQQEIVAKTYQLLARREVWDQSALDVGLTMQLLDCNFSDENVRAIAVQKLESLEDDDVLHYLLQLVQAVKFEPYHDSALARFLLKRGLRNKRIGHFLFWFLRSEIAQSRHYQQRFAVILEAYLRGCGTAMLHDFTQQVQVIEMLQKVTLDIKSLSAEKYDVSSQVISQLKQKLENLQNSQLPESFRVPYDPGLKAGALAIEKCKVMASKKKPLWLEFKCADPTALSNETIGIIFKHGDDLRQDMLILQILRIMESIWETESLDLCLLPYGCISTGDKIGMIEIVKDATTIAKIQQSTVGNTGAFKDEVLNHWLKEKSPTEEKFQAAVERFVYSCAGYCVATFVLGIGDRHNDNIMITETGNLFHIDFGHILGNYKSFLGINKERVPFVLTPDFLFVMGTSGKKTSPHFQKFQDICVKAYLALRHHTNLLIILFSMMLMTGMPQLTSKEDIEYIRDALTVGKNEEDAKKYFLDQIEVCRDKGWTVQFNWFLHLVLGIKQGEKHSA

With Cc1ccc(S(=O)(=O)N(C)C2CC(O)C2)cc1-c1cnc2c(N)ncnn12 [Example 159, 3-(4-aminoimidazo[2,1-f][1,2,4]triazin-7-yl)-N-((1R,3R)-3-hydroxycyclobutyl)-N,4-dimethylbenzenesulfonamide] the IC50 ([1]; read-out: PI3Kγ IC50) was 100 to 500 nM and the IC50 [2] was greater than 2000 nM.
Cc1ccc(S(=O)(=O)N(C)CC2(CO)CC2)cc1-c1cnc2c(N)ncnn12 [Example 160, 3-(4-aminoimidazo[2,1-f][1,2,4]triazin-7-yl)-N-((1-(hydroxymethyl)cyclopropyl)methyl)-N,4-dimethylbenzenesulfonamide] was tested, and the IC50 ([1]; read-out: PI3Kγ IC50) was 100 to 500 nM and the IC50 [2] was 500 to 2000 nM.
Cc1ccc(S(=O)(=O)N2CCS(=O)(=O)CC2)cc1-c1cnc2c(N)ncnn12 [Example 161, 4-((3-(4-aminoimidazo[2,1-f][1,2,4]triazin-7-yl)-4-methylphenyl)sulfonyl)thiomorpholine 1,1-dioxide] gave an IC50 ([1]; read-out: PI3Kγ IC50) of less than 100 nM and an IC50 [2] of 100 to 500 nM.
Compound Cc1ccc(S(=O)(=O)N2CCS(=O)(=O)CC2C)cc1-c1cnc2c(N)ncnn12 (stereo not shown) [Example 162, 4-((3-(4-aminoimidazo[2,1-f][1,2,4]triazin-7-yl)-4-methylphenyl)sulfonyl)-3-methylthiomorpholine 1,1-dioxide] has an IC50 ([1]; read-out: PI3Kγ IC50) of less than 100 nM and an IC50 [2] of 500 to 2000 nM.
For Cc1ccc(S(=O)(=O)N(C)CC(F)(F)F)cc1-c1cnc2c(N)ncnn12 [Example 163, 3-(4-aminoimidazo[2,1-f][1,2,4]triazin-7-yl)-N,4-dimethyl-N-(2,2,2-trifluoroethyl)benzenesulfonamide], the IC50 ([1]; read-out: PI3Kγ IC50) was less than 100 nM and the IC50 [2] was 500 to 2000 nM.
With CCCN(CC1CC1)S(=O)(=O)c1ccc(C)c(-c2cnc3c(N)ncnn23)c1 [Example 164, 3-(4-aminoimidazo[2,1-f][1,2,4]triazin-7-yl)-N-(cyclopropylmethyl)-4-methyl-N-propylbenzenesulfonamide] the IC50 ([1]; read-out: PI3Kγ IC50) was less than 100 nM and the IC50 [2] was 500 to 2000 nM.
In the case of Cc1ccc(S(=O)(=O)N2C[C@H](O)[C@@H](N3CCN(C)CC3)C2)cc1-c1cnc2c(N)ncnn12 [Example 167, (3S,4S)-1-((3-(4-aminoimidazo[2,1-f][1,2,4]triazin-7-yl)-4-methylphenyl)sulfonyl)-4-(4-methylpiperazin-1-yl)pyrrolidin-3-ol], the IC50 ([1]; read-out: PI3Kγ IC50) is reported as 100 to 500 nM and the IC50 [2] is reported as greater than 2000 nM.
In the case of Cc1ccc(S(=O)(=O)N2CCCC2c2c(C)noc2C)cc1-c1cnc2c(N)ncnn12 (stereo not shown) [Example 168, 7-(5-((2-(3,5-dimethylisoxazol-4-yl)pyrrolidin-1-yl)sulfonyl)-2-methylphenyl)imidazo[2,1-f][1,2,4]triazin-4-amine], the IC50 ([1]; read-out: PI3Kγ IC50) is reported as less than 100 nM and the IC50 [2] is reported as 500 to 2000 nM.
Cc1ccc(S(=O)(=O)N2C3CCC2CC(N2CCOCC2)C3)cc1-c1cnc2c(N)ncnn12 (stereo not shown) [Example 169, 7-(2-methyl-5-((3-morpholino-8-azabicyclo[3.2.1]octan-8-yl)sulfonyl)phenyl)imidazo[2,1-f][1,2,4]triazin-4-amine] gave an IC50 ([1]; read-out: PI3Kγ IC50) of 100 to 500 nM and an IC50 [2] greater than 2000 nM.
Cc1ccc(S(=O)(=O)N2[C@@H]3CC[C@H]2CN(C)C3)cc1-c1cnc2c(N)ncnn12 [Example 170, 7-(2-methyl-5-(((1R,5S)-3-methyl-3,8-diazabicyclo[3.2.1]octan-8-yl)sulfonyl)phenyl)imidazo[2,1-f][1,2,4]triazin-4-amine] showed an IC50 ([1]; read-out: PI3Kγ IC50) of less than 100 nM and an IC50 [2] of 500 to 2000 nM.
Cc1ccc(S(=O)(=O)N2CCN(C3CC3)C(=O)C2)cc1-c1cnc2c(N)ncnn12 [Example 171, 4-((3-(4-aminoimidazo[2,1-f][1,2,4]triazin-7-yl)-4-methylphenyl)sulfonyl)-1-cyclopropylpiperazin-2-one] was tested, and the IC50 ([1]; read-out: PI3Kγ IC50) was 100 to 500 nM and the IC50 [2] was 500 to 2000 nM.
Cc1ccc(S(=O)(=O)N2CC(=O)N3CCCC[C@@H]3C2)cc1-c1cnc2c(N)ncnn12 [Example 172, (R)-2-((3-(4-aminoimidazo[2,1-f][1,2,4]triazin-7-yl)-4-methylphenyl)sulfonyl)octahydro-4H-pyrido[1,2-a]pyrazin-4-one] gave an IC50 ([1]; read-out: PI3Kγ IC50) of 100 to 500 nM and an IC50 [2] of 500 to 2000 nM.
Compound Cc1ccc(S(=O)(=O)N(CCC#N)C2CCCCC2)cc1-c1cnc2c(N)ncnn12 [Example 173, 3-(4-aminoimidazo[2,1-f][1,2,4]triazin-7-yl)-N-(2-cyanoethyl)-N-cyclohexyl-4-methylbenzenesulfonamide] has an IC50 ([1]; read-out: PI3Kγ IC50) of 100 to 500 nM and an IC50 [2] greater than 2000 nM.
Cc1ccc(S(=O)(=O)N2CCN3C(=O)OC[C@H]3C2)cc1-c1cnc2c(N)ncnn12 [Example 174, (R)-7-((3-(4-aminoimidazo[2,1-f][1,2,4]triazin-7-yl)-4-methylphenyl)sulfonyl)hexahydro-3H-oxazolo[3,4-a]pyrazin-3-one] showed an IC50 ([1]; read-out: PI3Kγ IC50) of 100 to 500 nM and an IC50 [2] greater than 2000 nM.
Cc1ccc(S(=O)(=O)N(C)CC2(C)COC2)cc1-c1cnc2c(N)ncnn12 [Example 176, 3-(4-aminoimidazo[2,1-f][1,2,4]triazin-7-yl)-N,4-dimethyl-N-((3-methyloxetan-3-yl)methyl)benzenesulfonamide] showed an IC50 [1] of 100 to 500 nM and an IC50 [2] greater than 2000 nM.
For COCC1(N(C)S(=O)(=O)c2ccc(C)c(-c3cnc4c(N)ncnn34)c2)CC1 [Example 177, 3-(4-aminoimidazo[2,1-f][1,2,4]triazin-7-yl)-N-(1-(methoxymethyl)cyclopropyl)-N,4-dimethylbenzenesulfonamide], the IC50 ([1]; read-out: PI3Kγ IC50) was less than 100 nM and the IC50 [2] was 500 to 2000 nM.
Cc1ccc(S(=O)(=O)N(C)CC2(CO)CCC2)cc1-c1cnc2c(N)ncnn12 [Example 178, 3-(4-aminoimidazo[2,1-f][1,2,4]triazin-7-yl)-N-((1-(hydroxymethyl)cyclobutyl)methyl)-N,4-dimethylbenzenesulfonamide] was tested, and the IC50 ([1]; read-out: PI3Kγ IC50) was less than 100 nM and the IC50 [2] was 500 to 2000 nM.
CCN(CC1CCCO1)S(=O)(=O)c1ccc(C)c(-c2cnc3c(N)ncnn23)c1 (stereo not shown) [Example 179, 3-(4-aminoimidazo[2,1-f][1,2,4]triazin-7-yl)-N-ethyl-4-methyl-N-((tetrahydrofuran-2-yl)methyl)benzenesulfonamide] was tested, and the IC50 ([1]; read-out: PI3Kγ IC50) was less than 100 nM and the IC50 [2] was 500 to 2000 nM.
Compound Cc1ccc(S(=O)(=O)N[C@]2(C)C[C@H](O)C2)cc1-c1cnc2c(N)ncnn12 [Example 191, 3-(4-aminoimidazo[2,1-f][1,2,4]triazin-7-yl)-N-((1s,3s)-3-hydroxy-1-methylcyclobutyl)-4-methylbenzenesulfonamide] has an IC50 ([1]; read-out: PI3Kγ IC50) of less than 100 nM and an IC50 [2] of 500 to 2000 nM.
Work on Cc1ccc(S(=O)(=O)N2CCC3(CC2)COC(=O)N3)cc1-c1cnc2c(N)ncnn12 [Example 193, 8-((3-(4-Aminoimidazo[2,1-f][1,2,4]triazin-7-yl)-4-methylphenyl)sulfonyl)-3-oxa-1,8-diazaspiro[4.5]decan-2-one] yielded an IC50 ([1]; read-out: PI3Kγ IC50) of less than 100 nM and an IC50 [2] of 500 to 2000 nM.
Cc1ccc(S(=O)(=O)N2CC3(CCN(C)C3=O)C2)cc1-c1cnc2c(N)ncnn12 [Example 195, 2-((3-(4-Aminoimidazo[2,1-f][1,2,4]triazin-7-yl)-4-methylphenyl)sulfonyl)-6-methyl-2,6-diazaspiro[3.4]octan-5-one] was tested, and the IC50 ([1]; read-out: PI3Kγ IC50) was less than 100 nM and the IC50 [2] was 100 to 500 nM.
Work on Cc1ccc(S(=O)(=O)N2CCC(F)(F)C(O)C2)cc1-c1cnc2c(N)ncnn12 (stereo not shown) [Example 196, 1-((3-(4-Aminoimidazo[2,1-f][1,2,4]triazin-7-yl)-4-methylphenyl)sulfonyl)-4,4-difluoropiperidin-3-ol] yielded an IC50 ([1]; read-out: PI3Kγ IC50) of less than 100 nM and an IC50 [2] of 500 to 2000 nM.
Cc1ccc(S(=O)(=O)N2CCN3CCCC3C2)cc1-c1cnc2c(N)ncnn12 (stereo not shown) [Example 198, 7-(5-((Hexahydropyrrolo[1,2-a]pyrazin-2(1H)-yl)sulfonyl)-2-methylphenyl)imidazo[2,1-f][1,2,4]triazin-4-amine] showed an IC50 ([1]; read-out: PI3Kγ IC50) of 100 to 500 nM and an IC50 [2] of 500 to 2000 nM.
Compound Cc1ccc(S(=O)(=O)N2CCC(C)(C#N)C2)cc1-c1cnc2c(N)ncnn12 (stereo not shown) [Example 200, 1-((3-(4-Aminoimidazo[2,1-f][1,2,4]triazin-7-yl)-4-methylphenyl)sulfonyl)-3-methylpyrrolidine-3-carbonitrile] has an IC50 ([1]; read-out: PI3Kγ IC50) of less than 100 nM and an IC50 [2] of 500 to 2000 nM.
In the case of Cc1ccc(S(=O)(=O)N2CCC(c3ccncc3)C2)cc1-c1cnc2c(N)ncnn12 (stereo not shown) [Example 201, 7-(2-Methyl-5-((3-(pyridin-4-yl)pyrrolidin-1-yl)sulfonyl)phenyl)imidazo[2,1-f][1,2,4]triazin-4-amine], the IC50 ([1]; read-out: PI3Kγ IC50) is reported as less than 100 nM and the IC50 [2] is reported as 500 to 2000 nM.
For Cc1ccc(S(=O)(=O)N2CCC3(CCCO3)C2)cc1-c1cnc2c(N)ncnn12 (stereo not shown) [Example 202, 7-(5-((1-Oxa-7-azaspiro[4.4]nonan-7-yl)sulfonyl)-2-methylphenyl)imidazo[2,1-f][1,2,4]triazin-4-amine], the IC50 ([1]; read-out: PI3Kγ IC50) was 100 to 500 nM and the IC50 [2] was 500 to 2000 nM.
